The values that follow come from PubChem BioAssay (NCI).

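Method: 48-hour compound exposure of cells in 96-well plates, five concentrations, linear interpolation of endpoints. GI50 is the concentration that inhibits growth by half. At the TGI there is no net growth.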 Where only a bound is given, the exact number is not on record here.

Some test systems named below: 786-0 renal; A549 NSCLC; ACHN renal; HCC-2998 colon; HCT-15 colon; HL-60(TB) leukemia; OVCAR-3 ovarian; SW-620 colon; U251 CNS; UO-31 renal.
What all share (test): inhibition of tumour cell growth, NCI panel, 48 h

In the case of `Nc1nc(Nc2cccc(F)c2)nc2ccccc12`, the GI50 was 17.4 µM in the assay with 786-0 renal; 36.9 µM with A549 NSCLC; 20.4 µM in the assay with ACHN renal; 18 µM in the assay with HCC-2998 colon; 18.4 µM in the assay with HCT-15 colon; 25.5 µM in the assay with HL-60(TB) leukemia. Also, the GI50 in the assay on OVCAR-3 ovarian is 21.1 µM; in the assay on SW-620 colon, 17.1 µM; with U251 CNS, 16.8 µM; with UO-31 renal, 19 µM. Moreover, the TGI was 33.6 µM with 786-0 renal; greater than 100 µM in the assay on A549 NSCLC; 76.8 µM in the assay on ACHN renal; 37.3 µM with HCC-2998 colon; 47 µM in the assay with HCT-15 colon; 68.4 µM in the assay with HL-60(TB) leukemia. Besides, the TGI with OVCAR-3 ovarian is 49.6 µM; in the assay with SW-620 colon, 36.6 µM; in the assay with U251 CNS, 34.6 µM; in the assay on UO-31 renal, 61.2 µM.
`Cc1ccc2c(c1)ncn2-c1ncnc2c1CC(C)c1ccccc1N2C` (stereo not given): the GI50 with 786-0 renal is 0.487 µM; in the assay with A549 NSCLC, 0.248 µM; in the assay with ACHN renal, 0.383 µM; in the assay with HCC-2998 colon it was 0.304 µM; in the assay with HCT-15 colon, 0.0984 µM; in the assay on HL-60(TB) leukemia it was 0.0282 µM. Further, the GI50 in the assay with OVCAR-3 ovarian was 0.0389 µM; with SW-620 colon, 0.0435 µM; in the assay on U251 CNS it was 0.086 µM; in the assay on UO-31 renal it was 0.317 µM. Moreover, the TGI came out at 14.7 µM in the assay on 786-0 renal; 17.5 µM in the assay with A549 NSCLC; 12.1 µM in the assay with ACHN renal; 14.5 µM in the assay with HCC-2998 colon; 12.5 µM in the assay on HCT-15 colon; 0.0781 µM in the assay on HL-60(TB) leukemia. The TGI in the assay with OVCAR-3 ovarian was 0.409 µM; in the assay with SW-620 colon, 15.9 µM; in the assay on U251 CNS, 13.9 µM; with UO-31 renal it was 7.11 µM.
`CC(=O)OC1C2(CC3N4C(=O)C5(CO)SSC4(CC31O)C(=O)N5C)OC(C)C(C)(C)C2=O` (stereo not given): the GI50 with 786-0 renal is 0.234 µM; in the assay with A549 NSCLC, 0.0592 µM; in the assay with ACHN renal it was less than 0.01 µM; in the assay with HCC-2998 colon it was less than 0.018 µM; with HCT-15 colon it was less than 0.01 µM; with HL-60(TB) leukemia, 0.0379 µM. Further, the GI50 in the assay with OVCAR-3 ovarian is 1.32 µM; with SW-620 colon, less than 0.01 µM; in the assay with U251 CNS, less than 0.01 µM; in the assay with UO-31 renal, 0.0952 µM. For the same molecule, the TGI is 0.528 µM with 786-0 renal; 0.231 µM in the assay with A549 NSCLC; 0.0225 µM in the assay on ACHN renal; 0.0538 µM in the assay on HCC-2998 colon; less than 0.0197 µM with HCT-15 colon; 3.01 µM with OVCAR-3 ovarian. Also, the values for the TGI with SW-620 colon and with UO-31 renal were 0.0136 µM and 1.05 µM, respectively.
On to `COC(=O)[C@@H]1CCCN1C(=O)[C@@H]1CCCN1C(=O)[C@@H](Cc1c[nH]c2ccccc12)NC(=S)Nc1cc(C(F)(F)F)cc(C(F)(F)F)c1`, for which the GI50 was 5.95 µM in the assay on 786-0 renal; 5.31 µM in the assay with A549 NSCLC; 4.28 µM in the assay on ACHN renal; 2.9 µM with HCC-2998 colon; 4.87 µM with HCT-15 colon; 4.26 µM in the assay with HL-60(TB) leukemia. For the same molecule, the GI50 is 3.8 µM in the assay on OVCAR-3 ovarian, 4.34 µM in the assay with SW-620 colon, 4.31 µM with U251 CNS and 5.44 µM in the assay on UO-31 renal. The TGI in the assay with 786-0 renal is 20.1 µM; with A549 NSCLC, greater than 100 µM; with ACHN renal it was greater than 100 µM; in the assay with HCC-2998 colon, 9.05 µM; in the assay on HCT-15 colon it was greater than 100 µM; in the assay with HL-60(TB) leukemia it was greater than 100 µM. Moreover, the TGI is 52.2 µM with OVCAR-3 ovarian, greater than 100 µM in the assay on SW-620 colon, 95.3 µM with U251 CNS and greater than 100 µM with UO-31 renal.
In the case of `Cn1cc(-c2ccc3c(c2)CCN3C(=O)Cc2cccc(C(F)(F)F)c2)c2c(N)ncnc21`, the GI50 in the assay on 786-0 renal was 2.26 µM; in the assay with A549 NSCLC, 7.61 µM; in the assay with ACHN renal it was 0.871 µM; with HCC-2998 colon, 13.1 µM; in the assay with HCT-15 colon it was 1.77 µM; in the assay with HL-60(TB) leukemia, 5.39 µM. Besides, the GI50 is 7.1 µM in the assay on OVCAR-3 ovarian, 4.89 µM in the assay on SW-620 colon, 2.69 µM with U251 CNS and 0.673 µM in the assay on UO-31 renal. Also, the TGI with 786-0 renal was 17.7 µM; in the assay on A549 NSCLC, 25.5 µM; with ACHN renal, 13.2 µM; in the assay on HCC-2998 colon, 28.4 µM; with HCT-15 colon it was 16.1 µM; in the assay with HL-60(TB) leukemia it was 33 µM. In addition, the TGI with OVCAR-3 ovarian was 21.9 µM; in the assay with SW-620 colon, 20.8 µM; with U251 CNS it was 17.7 µM; with UO-31 renal, 14.3 µM.
For `CC1CC2(CC[C@@H]1O)OCCO2` (stereo not given in full), the TGI in the assay on 786-0 renal, with A549 NSCLC, in the assay with HCC-2998 colon, with HCT-15 colon, in the assay on HL-60(TB) leukemia and with OVCAR-3 ovarian was greater than 100 µM throughout. Also, the TGI in the assay on SW-620 colon, in the assay on U251 CNS and in the assay on UO-31 renal was greater than 100 µM each time.
With `Cc1c2ccncc2c(C)c2c1[nH]c1ccc(OC(C)(C)C)cc12`, the TGI with 786-0 renal amounted to 2.96 µM; in the assay on A549 NSCLC, 13.1 µM; in the assay on HCC-2998 colon, 3.78 µM; in the assay with HL-60(TB) leukemia, 3.83 µM; in the assay with OVCAR-3 ovarian, 3.42 µM; with SW-620 colon it was 5.1 µM. Further, the TGI in the assay on U251 CNS amounted to 10.1 µM; in the assay with UO-31 renal it was 4.3 µM.
With `FC(F)(F)C12C34C=CC5(CCC6(C=CC1(CC3)O6)C52C(F)(F)F)O4` (stereo not given), the TGI in the assay with 786-0 renal, in the assay on A549 NSCLC, with ACHN renal, in the assay with HCC-2998 colon, in the assay on HL-60(TB) leukemia and in the assay on OVCAR-3 ovarian was greater than 100 µM in each case. Besides, the TGI in the assay on SW-620 colon and with U251 CNS was greater than 100 µM throughout.
With `CS(=O)(=O)Nc1cc(-c2ccc3ncnc(Nc4ccc5c(cnn5Cc5ccc(F)cc5)c4)c3c2)cnc1Cl`, the GI50 is 2.22 µM with 786-0 renal; 3.38 µM in the assay with A549 NSCLC; 2.99 µM in the assay with ACHN renal; 1.41 µM in the assay with HCC-2998 colon; 3.21 µM in the assay with HCT-15 colon; 0.435 µM in the assay with HL-60(TB) leukemia. Also, the GI50 in the assay on OVCAR-3 ovarian was 1.1 µM; in the assay on SW-620 colon it was 2.5 µM; with U251 CNS, 1.41 µM. Also, the TGI was 19.9 µM in the assay with 786-0 renal; 63.8 µM in the assay with A549 NSCLC; greater than 100 µM with ACHN renal; 3.17 µM with HCC-2998 colon; 21.3 µM in the assay on HCT-15 colon; 2.75 µM in the assay with HL-60(TB) leukemia. Besides, the TGI was found to be 3.3 µM in the assay with OVCAR-3 ovarian, 12.8 µM in the assay with SW-620 colon and 11.1 µM in the assay on U251 CNS.
As for `CCOc1ccc(NC(=O)CC2SC(N)=NC2=O)cc1` (stereo not given), the TGI with 786-0 renal, in the assay with A549 NSCLC, in the assay with ACHN renal, with HCC-2998 colon, in the assay on HL-60(TB) leukemia and with OVCAR-3 ovarian was greater than 100 µM in each case. Also, the TGI in the assay with SW-620 colon, in the assay on U251 CNS and with UO-31 renal was greater than 100 µM each time.
